Test results from patent US10689363B2 (Merck Patent GmbH, priority 2017, dated 2020).
Read-outs that look alike come from different tables or passages of the source.

How the values were obtained:
[1] = Water Vapour Sorption isotherm (25° C., DVS-Intrinsic), hygroscopicity acc. to Ph. Eur. 5.11.; format: physicochemical; conditions: for water uptake levels: 25° C.
Protocol: (based on multiple measurements on different samples of form A2). […] DSC scan of form A2 was acquired on a Mettler-Toledo DSC 821 with a heating rate of 50 K/min, using nitrogen purge gas at 50 mL/min. TGA scan of form A2 was acquired on a Mettler-Toledo TGA 851 with a heating rate of 5 K/min, using nitrogen purge gas at 50 mL/min. […] Eur. Criteria (section 5.11.). Water Vapour Sorption isotherm was acquired on a DVS-Intrinsic system from SMS.
(based on multiple measurements on different samples of form NF5). […] Eur. Criteria (section 5.11.). […] Water Vapour Sorption isotherm was acquired on a DVS-Intrinsic system from SMS.
(based on multiple measurements on one sample of form NF6). […] Eur. Criteria (section 5.11.). […] Water Vapour Sorption isotherm was acquired on a DVS-Intrinsic system from SMS.
Eur. Criteria (section 5.11.). […] Water Vapour Sorption isotherm was acquired on a DVS-Intrinsic system from SMS.
Other physical properties of form Fumarate-NF1 include the following: ^1H-NMR spectroscopic data reveal a API:Fumarate molar ratio of 1:1. […] DSC scan of form Fumarate-NF1 was acquired on a Mettler-Toledo DSC 821 with a heating rate of 5 K/min, using nitrogen purge gas at 50 mL/min. TGA scan of form Fumarate-NF1 was acquired on a Mettler-Toledo TGA 851 with a heating rate of 5 K/min, using nitrogen purge gas at 50 mL/min. […] Eur. Criteria (section 5.11.). […] Water Vapour Sorption isotherm was acquired on a DVS-Intrinsic system from SMS.
Other physical properties of form Maleate-NF1 include the following: ^1H-NMR spectroscopic data reveal a API:Maleate molar ratio of 1:1. […] DSC scan of form Maleate-NF1 was acquired on a Mettler-Toledo DSC 821 with a heating rate of 5 K/min, using nitrogen purge gas at 50 mL/min. TGA scan of form Maleate-NF1 was acquired on a Mettler-Toledo TGA 851 with a heating rate of 5 K/min, using nitrogen purge gas at 50 mL/min. […] Form Maleate-NF1 can be classified as non-hygroscopic according to Ph. Eur. Criteria (section 5.11.). […] Water Vapour Sorption isotherm was acquired on a DVS-Intrinsic system from SMS.
Other physical properties of form Citrate-NF1 include the following: ^1H-NMR spectroscopic data reveal a API:Citrate molar ratio of 1:1. […] DSC scan of form Citrate-NF1 was acquired on a Mettler-Toledo DSC 821 with a heating rate of 5 K/min, using nitrogen purge gas at 50 mL/min. TGA scan of form Citrate-NF1 was acquired on a Mettler-Toledo TGA 851 with a heating rate of 5 K/min, using nitrogen purge gas at 50 mL/min. […] Eur. Criteria (section 5.11.). […] Water Vapour Sorption isotherm was acquired on a DVS-Intrinsic system from SMS.
(based on multiple measurements on different samples of form A1). […] DSC scan of form A1 was acquired on a Mettler-Toledo DSC 821 with a heating rate of 50 K/min, using nitrogen purge gas at 50 mL/min. TGA scan of form A1 was acquired on a Mettler-Toledo TGA 851 with a heating rate of 5 K/min, using nitrogen purge gas at 50 mL/min. […] Eur. Criteria (section 5.11.). […] Water Vapour Sorption isotherm was acquired on a DVS-Intrinsic system from SMS. […] Dissolution level of form A1 in Fasted-State Simulated Intestinal Fluid [FaSSIF, pH 6.5] at 37° C. was determined to be approx. 36 μg/mL (after 2 h), and dissolution level of form A1 in Fed-State Simulated Intestinal Fluid [FeSSIF, pH 5.0] at 37° C. was determined to be approx. 214 μg/mL (after 2 h), respectively (see example 11).
All forms were characterized according to standard methods which are found in e.g. Rolf Hilfiker, ‘Polymorphism in the Pharmaceutical Industry’. Wiley-VCH. Weinheim 2006 (Chapter 6: X-Ray Diffraction. Chapter 6: Vibrational Spectroscopy. Chapter 3: Thermal Analysis, Chapter 9: Water Vapour Sorption, and references therein); and H. G. Brittain, ‘Polymorphism in Pharmaceutical Solids. Vol. 95. Marcel Dekker Inc., New York 1999 (Chapter 6 and references therein).

[2] = Mini-dissolution in FaSSIF / FeSSIF medium at 37° C.; format: physicochemical; conditions: for Dissolution levels in FaSSIF pH 6.5: FaSSIF pH 6.5, 37° C.; for Dissolution levels in FeSSIF pH 5.0: FeSSIF pH 5.0, 37° C.
Protocol: All dispersions were agitated at 37° C. for up to 2 hours. At defined time intervals (30 min. 60 min, 120 min), sample aliquots of homogeneous dispersions were withdrawn by a syringe, and filtrated via syringe filter adapters (PTFE, 0.45 μm).

[3] = Thermodynamic solubility (24 h, 37° C.) in FaSSIF medium or USP Phosphate buffer; format: physicochemical; conditions: 24 h; for Thermodynamic solubility FaSSIF pH 6.5: FaSSIF pH 6.5, 37° C.; for Thermodynamic solubility PBS buffer 7.4: USP Phosphate buffer pH 7.4, 37° C.
[4] = pH 6.5
[5] = relative humidity range 0-80% rh
[6] = relative humidity range 90-98% rh

| Structure (SMILES) | hygroscopicity classification according to Ph. Eur. Criteria (section 5.11.) [1] | water uptake levels [1, 5] [wt %] | water uptake levels [1, 6] [wt %] | Dissolution levels in FaSSIF pH 6.5 ([2]; 30 min) [μg/mL] | Dissolution levels in FaSSIF pH 6.5 ([2]; 60 min) [μg/mL] | Dissolution levels in FaSSIF pH 6.5 ([2]; 120 min (2 h)) | Dissolution levels in FaSSIF pH 6.5 ([2]; 120 min (2 h), listed as Free base form Al) [μg/mL] | Dissolution levels in FeSSIF pH 5.0 ([2]; 30 min) [μg/mL] | Dissolution levels in FeSSIF pH 5.0 ([2]; 60 min) [μg/mL] | Dissolution levels in FeSSIF pH 5.0 ([2]; 120 min (2 h)) | Dissolution levels in FeSSIF pH 5.0 ([2]; 120 min (2 h), listed as Free base form A1) [μg/mL] | Thermodynamic solubility FaSSIF pH 6.5 [3] | Thermodynamic solubility FaSSIF pH 6.5 ([3]; listed as Free base form A1) [μg/mL] | Thermodynamic solubility PBS buffer 7.4 [3] | Thermodynamic solubility PBS buffer 7.4 ([3]; listed as Free base form A1) [µg/mL] | kinetic solubility levels (4 h), factor higher vs form A1 [4] | hygroscopicity classification according to Ph. Eur. Criteria (section 5.11.) ([1]; listed as NF5) | water uptake levels ([1]; relative humidity level of 98% rh) [wt %] | water uptake levels ([1]; relative humidity range 0-90% rh) [wt %] | hygroscopicity classification according to Ph. Eur. Criteria (section 5.11.) ([1]; listed as NF6) |
| --- | --- | --- | --- | --- | --- | --- | --- | --- | --- | --- | --- | --- | --- | --- | --- | --- | --- | --- | --- | --- |
| C=CC(=O)N1CCC(CNc2ncnc(N)c2-c2ccc(Oc3ccccc3)cc2)CC1 [form A1, 1-(4-{[6-Amino-5-(4-phenoxy-phenyl)-pyrimidin-4-ylamino]-methyl}-piperidin-1-yl)-propenone] | slightly hygroscopic | ≤ 1 | ≤ 2 | 25 | 33 | approx. 36 μg/mL | 36 | 190 | 205 | approx. 214 μg/mL | 214 | approx. 21 μg/mL | 21 | approx. 14 μg/mL | 14 | – | – | – | – | – |
| C=CC(=O)N1CCC(CNc2ncnc(N)c2-c2ccc(Oc3ccccc3)cc2)CC1 [form NF5, 1-(4-{[6-Amino-5-(4-phenoxy-phenyl)-pyrimidin-4-ylamino]-methyl}-piperidin-1-yl)-propenone] | slightly hygroscopic | – | – | – | – | – | – | – | – | – | – | – | – | – | – | ~1.5 | Slightly hygroscopic | ≤ 2 | ≤ 1 | – |
| C=CC(=O)N1CCC(CNc2ncnc(N)c2-c2ccc(Oc3ccccc3)cc2)CC1 [form NF6, 1-(4-{[6-Amino-5-(4-phenoxy-phenyl)-pyrimidin-4-ylamino]-methyl}-piperidin-1-yl)-propenone] | slightly hygroscopic | ≤ 2 | ≤ 3 | – | – | – | – | – | – | – | – | – | – | – | – | ~3 | – | – | – | Slightly hygroscopic |
